Assay results as given in US10894885B2, “Crosslinkable composition and method for producing a coated article” (HWK KRONBICHLER GMBH, priority 2016, dated 2021).

Experiment: Surface tension at a suspended drop (Drop Shape Analyser DSA 25)
Format: physicochemical
Details: 23.5-25.0° C., ten measurements
Procedure: The surface tension was determined at a suspended drop using a “Drop Shape Analyser DSA 25” of the Krüss corporation. The measurements were performed at temperatures between 23.5 and 25.0° C. and at a relative humidity of approximately 15-30%. The sample was measured a total of ten times. The standard deviation is marked by s in Table 4 shown below.

- OFS (surface tension) (c 0.5 w/w % in water): 21.94 mN/m
- OFS (surface tension) (c 1 w/w % in water): 20.58 mN/m
SMILES: C=Cn1cc[n+](CCC(F)(F)C(F)(F)C(F)(F)C(F)(F)C(F)(F)C(F)(F)F)c1.[Cl-] [3-(1H,1H,2H,2H-perfluorooctyl)-1-vinyl-1H-imidazoliumchloride]
